Where two headings read alike, the source gives them in different places.

In patent publication US9670227B2, “Thienopyrimidine derivatives, a process for their preparation and pharmaceutical compositions containing them” (LES LABORATOIRES SERVIER, priority 2013, dated 2017) one finds IC50 data, which are given here for eight compounds.

The target in one assay is Mcl-1 protein (UniProtKB primary accession number: Q07820) (Homo sapiens, UniProt Q07820). Briefly: Inhibition of Mcl-1 by fluorescence polarisation, Method 1. In kind it is binding. The note with it: read-out: IC50 (M) Mcl-1 FP. A digest of the protocol: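 An 11-point DMSO dilution of compound is mixed with buffer (10 mM HEPES, 150 mM NaCl, 0.05% Tween 20, pH 7.4) carrying 1 nM fluorescein-labelled ligand and 5 nM Mcl-1, final concentrations. Displacement is monitored by fluorescence polarisation.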
Background: Fluorescence polarisation rises when a labelled molecule tumbles more slowly, as on binding a larger partner.

In assay [1] the test system is H929 multiple myeloma tumour line. Briefly: In vitro cytotoxicity, Microculture Tetrazolium Assay. In kind it is cell-based. The conditions noted are these: H929 cells, 48 hours exposure, MTT, read-out: IC50 (μM) MTT H929. As for the experimental part: The cytotoxicity studies were carried out on the H929 multiple myeloma tumour line.
The cells are distributed onto microplates and exposed to the test compounds for 48 hours.

[2] abbreviates: fluorescence polarisation, Method 1, or Method 2.
Setting [3] is: fluorescence polarisation test, Method 2 values are underlined in the patent (underlining not visible here).

Chain of Mcl-1 protein (Q07820 whole entry): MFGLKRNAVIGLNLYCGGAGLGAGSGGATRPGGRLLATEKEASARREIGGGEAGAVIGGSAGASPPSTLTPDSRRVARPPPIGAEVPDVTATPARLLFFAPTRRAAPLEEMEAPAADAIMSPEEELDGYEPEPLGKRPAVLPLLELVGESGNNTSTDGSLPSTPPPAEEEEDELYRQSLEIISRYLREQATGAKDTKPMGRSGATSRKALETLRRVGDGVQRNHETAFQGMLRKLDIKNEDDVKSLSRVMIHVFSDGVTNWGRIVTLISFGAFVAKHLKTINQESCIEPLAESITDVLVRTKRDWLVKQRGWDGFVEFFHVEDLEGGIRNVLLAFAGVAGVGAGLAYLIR

Take `COc1ccc(-c2sc3ncnc(OC(Cc4ccccc4OCc4ccnc(-c5ccccc5OC)n4)C(=O)O)c3c2-c2ccc(OCCN3CCN(C)CC3)c(Cl)c2C)cc1` (single isomer, unassigned) [Example 760]: the IC50 at Mcl-1 protein (setting [2]) came out at 1.18e-09 M; in assay [1] it was 0.004 µM.

On to `Cc1c(-c2c(-c3ccco3)sc3ncnc(OC(Cc4ccccc4OCc4cnc(N5CCOCC5)nc4)C(=O)O)c23)ccc(OCCN2CCN(C)CC2)c1Cl` [Example 273, (2R)-2-{[(5Sa)-5-{3-chloro-2-methyl-4-[2-(4-methylpiperazin-1-yl)ethoxy]phenyl}-6-(furan-2-yl)thieno[2,3-d]pyrimidin-4-yl]oxy}-3-(2-{[2-(morpholin-4-yl)pyrimidin-5-yl]methoxy}phenyl)propanoic acid], for which the IC50 at Mcl-1 protein (setting [3]) was 9.2e-09 M; in assay [1] (Homo sapiens, NCI-H929, 48 h) it was 0.905 µM.

On to `COc1ccccc1-c1nccc(COc2ccccc2CC(Oc2ncnc3sc(-c4ccc(OCc5cccs5)cc4)c(-c4ccc(OCCN5CCN(C)CC5)c(Cl)c4C)c23)C(=O)O)n1` [Example 777, (2R)-2-[((5Sa)-5-{3-chloro-2-methyl-4-[2-(4-methylpiperazin-1-yl)ethoxy]phenyl}-6-[4-(thiophen-2-ylmethoxy)phenyl]thieno[2,3-d]pyrimidin-4-yl)oxy]-3-(2-{[2-(2-methoxyphenyl)pyrimidin-4-yl]methoxy}phenyl)propanoic acid], for which the IC50 at Mcl-1 protein (setting [2]) is 1.12e-09 M; in assay [1] (Homo sapiens, NCI-H929, 48 h), 0.008 µM.

Turning to `COc1cc(F)cc(-c2sc3ncnc(OC(Cc4ccccc4OC)C(=O)O)c3c2-c2ccc(OCCN3CCN(C)CC3)c(Cl)c2C)c1` [Example 528, (2R)-2-{[(5Sa)-5-{3-chloro-2-methyl-4-[2-(4-methylpiperazin-1-yl)ethoxy]phenyl}-6-(3-fluoro-5-methoxyphenyl)thieno[2,3-d]pyrimidin-4-yl]oxy}-3-(2-methoxyphenyl)propanoic acid], the IC50 at Mcl-1 protein (setting [2]) came to 1.6e-08 M; in assay [1] (Homo sapiens, NCI-H929, 48 h), 0.334 µM.

As for `CCCCn1nccc1COc1ccccc1CC(Oc1ncnc2sc(-c3ccc(F)nc3)c(-c3ccc(OCCN4CCN(C)CC4)c(Cl)c3C)c12)C(=O)O` [Example 607, (2R)-3-{2-[(1-butyl-1H-pyrazol-5-yl)methoxy]phenyl}-2-{[(5Sa)-5-{3-chloro-2-methyl-4-[2-(4-methylpiperazin-1-yl)ethoxy]phenyl}-6-(6-fluoropyridin-3-yl)thieno[2,3-d]pyrimidin-4-yl]oxy}propanoic acid], the IC50 stood at 3.5e-09 M at Mcl-1 protein (setting [2]) and 0.04 µM in assay [1] (Homo sapiens, NCI-H929, 48 h).

Turning to `CCc1sc2ncnc(OC(Cc3ccccc3)C(=O)O)c2c1-c1cc(CN2CCN(C)CC2)c(OC)c(Cl)c1C` [Example 434, (2R)-2-[((5Sa)-5-{3-chloro-4-methoxy-2-methyl-5-[(4-methylpiperazin-1-yl)methyl]phenyl}-6-ethylthieno[2,3-d]pyrimidin-4-yl)oxy]-3-phenylpropanoic acid], the IC50 on Mcl-1 protein (setting [2]) was found to be 1.7e-07 M; in assay [1] (Homo sapiens, NCI-H929, 48 h), 11.3 µM.

As to `Cc1c(-c2c(-c3ccco3)sc3ncnc(OC(Cc4ccccc4OCc4cc5ccccc5cn4)C(=O)O)c23)ccc(OCCN2CCN(C)CC2)c1Cl` [Example 230, (2R)-2-{[(5Sa)-5-{3-chloro-2-methyl-4-[2-(4-methylpiperazin-1-yl)ethoxy]phenyl}-6-(furan-2-yl)thieno[2,3-d]pyrimidin-4-yl]oxy}-3-[2-(isoquinolin-3-ylmethoxy)phenyl]propanoic acid], the IC50 on Mcl-1 protein (setting [3]) turned out to be 1.2e-08 M; in assay [1] (Homo sapiens, NCI-H929, 48 h), 0.312 µM.

Regarding `Cc1c(-c2c(-c3ccc(F)cc3)sc3ncnc(OC(Cc4ccccc4OCc4cnccn4)C(=O)O)c23)ccc(OCC2CCN(C)C2)c1Cl` [Example 145, (2R)-2-{[(5Sa)-5-{3-chloro-2-methyl-4-[(1-methylpyrrolidin-3-yl)methoxy]phenyl}-6-(4-fluorophenyl)thieno[2,3-d]pyrimidin-4-yl]oxy}-3-[2-(pyrazin-2-ylmethoxy)phenyl]propanoic acid], the half-maximal inhibitory concentration (IC50) stood at 1.1e-08 M on Mcl-1 protein (setting [3]) and 0.293 µM in assay [1].

One may read the IC50 as the point on the concentration scale where inhibition reaches its midpoint.
